Data from US20100267561A1, “HERBICIDAL PYRIDAZINONE DERIVATIVES” (priority 2007, published 2010).
Read-outs that look alike come from different tables or passages of the source.

Columns and labels:
Format in all cases: in vivo
[1] = test system: Italian ryegrass (Lolium multiflorum); assay: Test B pre-/postemergence plant response; conditions: Lolium multiflorum, read-out: Plant response rating, Ryegrass, Italian; for pest or weed control at 31 g/ha: 31 g ai/ha, 100 complete control; for pest or weed control at 62 g/ha: 62 g ai/ha; for pest or weed control at 62 g/ha / pest or weed control at 125 g/ha / pest or weed control at 250 g/ha: scale 0 to 100; for pest or weed control at 125 g/ha: 125 g ai/ha; for pest or weed control at 250 g/ha: 250 g ai/ha
In short: (§1)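 Seeds were sown and sprayed preemergence, while plants at 2 to 18 cm (1- to 4-leaf stage) got postemergence sprays. Compounds were formulated in a non-phytotoxic solvent mixture with surfactant. After 13 to 15 days in a greenhouse, injury was rated visually against untreated controls, 0 (no effect) to 100 (complete control).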

[2] = test system: blackgrass (Alopecurus myosuroides); assay: Test B pre-/postemergence plant response; conditions: for pest or weed control at 31 g/ha: 31 g ai/ha, 100 complete control; for pest or weed control at 62 g/ha: 62 g ai/ha; for pest or weed control at 125 g/ha: 125 g ai/ha
In short: as §1

[3] = test system: catchweed bedstraw (Galium aparine); assay: Test B pre-/postemergence plant response; conditions: Galium aparine, pre-emergence, Preemergence, read-out: Plant response rating, Galium
In short: as §1

[4] = test system: common (oilseed) sunflower (Helianthus annuus); assay: Test B pre-/postemergence plant response; conditions: Helianthus annuus, pre-emergence, Preemergence, read-out: Plant response rating, Sunflower
In short: as §1

[5] = test system: common ragweed (Ambrosia elation); assay: Test B pre-/postemergence plant response; conditions: Ambrosia, read-out: Plant response rating, Ragweed; for pest or weed control at 31 g/ha: 31 g ai/ha, 100 complete control; for pest or weed control at 62 g/ha: 62 g ai/ha; for pest or weed control at 62 g/ha / pest or weed control at 125 g/ha / pest or weed control at 250 g/ha: scale 0 to 100; for pest or weed control at 125 g/ha: 125 g ai/ha; for pest or weed control at 250 g/ha: 250 g ai/ha
In short: as §1

[6] = test system: downy bromegrass (Bromus tectorum); assay: Test B pre-/postemergence plant response; conditions: Bromus tectorum, read-out: Plant response rating, Bromegrass, Downy; for pest or weed control at 31 g/ha: 31 g ai/ha, 100 complete control; for pest or weed control at 62 g/ha: 62 g ai/ha; for pest or weed control at 125 g/ha: 125 g ai/ha; for pest or weed control at 250 g/ha: 250 g ai/ha
In short: as §1

[7] = test system: eastern black (E.B.) nightshade (Solanum ptycanthum); assay: Test B pre-/postemergence plant response; conditions: Solanum, pre-emergence, Preemergence, read-out: Plant response rating, Nightshade, E. B.
In short: as §1

[8] = test system: johnsongrass (Sorghum halepense); assay: Test B pre-/postemergence plant response; conditions: Sorghum halepense, read-out: Plant response rating, Johnsongrass; for pest or weed control at 31 g/ha: 31 g ai/ha, 100 complete control; for pest or weed control at 62 g/ha: 62 g ai/ha; for pest or weed control at 62 g/ha / pest or weed control at 125 g/ha / pest or weed control at 250 g/ha: scale 0 to 100; for pest or weed control at 125 g/ha: 125 g ai/ha; for pest or weed control at 250 g/ha: 250 g ai/ha
In short: as §1

[9] = test system: large crabgrass (Digitaria sanguinalis); assay: Test B pre-/postemergence plant response; conditions: Digitaria sanguinalis, read-out: Plant response rating, Crabgrass, Large; for pest or weed control at 31 g/ha: 31 g ai/ha, 100 complete control; for pest or weed control at 62 g/ha: 62 g ai/ha; for pest or weed control at 62 g/ha / pest or weed control at 125 g/ha / pest or weed control at 250 g/ha: scale 0 to 100; for pest or weed control at 125 g/ha: 125 g ai/ha; for pest or weed control at 250 g/ha: 250 g ai/ha
In short: as §1

[10] = test system: morningglory (Ipomoea coccinea); assay: Test B pre-/postemergence plant response; conditions: Ipomoea, read-out: Plant response rating, Morningglory; for pest or weed control at 62 g/ha: 62 g ai/ha; for pest or weed control at 62 g/ha / pest or weed control at 125 g/ha / pest or weed control at 250 g/ha: scale 0 to 100; for pest or weed control at 125 g/ha: 125 g ai/ha; for pest or weed control at 250 g/ha: 250 g ai/ha
In short: as §1

[11] = test system: pigweed (Amaranthus retroflexus); assay: Test B pre-/postemergence plant response; conditions: Amaranthus retroflexus, read-out: Plant response rating, Pigweed; for pest or weed control at 62 g/ha: 62 g ai/ha; for pest or weed control at 62 g/ha / pest or weed control at 125 g/ha / pest or weed control at 250 g/ha: scale 0 to 100; for pest or weed control at 125 g/ha: 125 g ai/ha; for pest or weed control at 250 g/ha: 250 g ai/ha
In short: as §1

wild oat (Avena fatua) = assay: Test B pre-/postemergence plant response; conditions: Avena fatua, read-out: Plant response rating, Oat, Wild; for pest or weed control at 31 g/ha: 31 g ai/ha, 100 complete control; for pest or weed control at 62 g/ha: 62 g ai/ha; for pest or weed control at 62 g/ha / pest or weed control at 125 g/ha / pest or weed control at 250 g/ha: scale 0 to 100; for pest or weed control at 125 g/ha: 125 g ai/ha; for pest or weed control at 250 g/ha: 250 g ai/ha
In short: as §1

[12] = test system: barnyardgrass (Echinochloa crus-galli); assay: Test B flooded paddy test plant response; conditions: Echinochloa crus-galli, read-out: Plant response rating, Barnyardgrass
In short: (§2)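 Step one: raise plants to 2 leaves. Step two: flood pots 3 cm over the soil and apply compound into the water, keeping this depth. Step three: after 13–15 greenhouse days, score visually versus controls, 0–100, where 100 means complete control.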

rice (Oryza sativa) = assay: Test B flooded paddy test plant response; conditions: Oryza sativa, read-out: Plant response rating, Rice
In short: as §2

[13] = post-emergence, Postemergence, scale 0 to 100, 0 no effect
[14] = pre-emergence, Preemergence, 0 to 100 scale, 0 no effect
[15] = Alopecurus myosuroides, post-emergence, Postemergence, scale 0 to 100, read-out: Plant response rating, Blackgrass
[16] = Alopecurus myosuroides, pre-emergence, Preemergence, scale 0 to 100, read-out: Plant response rating, Blackgrass
[17] = 31 g ai/ha, 0 to 100 scale, 0 no effect, 100 complete control
[18] = post-emergence, Postemergence, scale 0 to 100
[19] = pre-emergence, Preemergence, scale 0 to 100
[20] = Flood (flooded paddy test), 62 g ai/ha, scale 0 to 100, 0 no effect, 100 complete control
[21] = Flood (flooded paddy test), 125 g ai/ha, scale 0 to 100, 0 no effect, 100 complete control
[22] = Flood (flooded paddy test), 250 g ai/ha, scale 0 to 100, 0 no effect, 100 complete control
[23] = Flood, 31 g ai/ha, scale 0 to 100

## Cc1cc(-c2ccc(C(F)(F)F)cc2)nn1-c1c(O)cnn(C)c1=O [Compound 1, 5-hydroxy-2-methyl-4-[5-methyl-3-[4-(trifluoromethyl)phenyl]-1H-pyrazol-1-yl]-3(2H)-pyridazinone]
[1]; [13]
  pest or weed control at 31 g/ha: 95%
[1]; post-emergence, Postemergence
  pest or weed control at 62 g/ha: 100%
  pest or weed control at 125 g/ha: 100%
  pest or weed control at 250 g/ha: 100%
[1]; [14]
  pest or weed control at 31 g/ha: 80%
[1]; pre-emergence, Preemergence
  pest or weed control at 62 g/ha: 100%
  pest or weed control at 125 g/ha: 100%
  pest or weed control at 250 g/ha: 100%
[2]; 250 g ai/ha, preemergence, 0-100 scale
  Blackgrass plant response rating: 100
[2]; Alopecurus myosuroides, post-emergence, Postemergence, scale 0 to 100, 0 no effect, read-out: Plant response rating, Blackgrass
  pest or weed control at 31 g/ha: 20%
[2]; [15]
  pest or weed control at 62 g/ha: 90%
  pest or weed control at 125 g/ha: 100%
[2]; Alopecurus myosuroides, post-emergence, Postemergence, 250 g ai/ha, scale 0 to 100, read-out: Plant response rating, Blackgrass
  pest or weed control at 250 g/ha: 100%
[2]; Alopecurus myosuroides, pre-emergence, Preemergence, 0 to 100 scale, 0 no effect, read-out: Plant response rating, Blackgrass
  pest or weed control at 31 g/ha: 100%
[2]; [16]
  pest or weed control at 62 g/ha: 100%
  pest or weed control at 125 g/ha: 100%
[3]; [17]
  pest or weed control at 31 g/ha: 0%
[3]; 62 g ai/ha, scale 0 to 100
  pest or weed control at 62 g/ha: 0%
[3]; 125 g ai/ha, scale 0 to 100
  pest or weed control at 125 g/ha: 0%
[3]; 250 g ai/ha, scale 0 to 100
  pest or weed control at 250 g/ha: 0%
[4]; [17]
  pest or weed control at 31 g/ha: 0%
[4]; 62 g ai/ha, scale 0 to 100
  pest or weed control at 62 g/ha: 0%
[4]; 125 g ai/ha, scale 0 to 100
  pest or weed control at 125 g/ha: 0%
[4]; 250 g ai/ha, scale 0 to 100
  pest or weed control at 250 g/ha: 60%
[5]; [13]
  pest or weed control at 31 g/ha: 0%
[5]; post-emergence, Postemergence
  pest or weed control at 62 g/ha: 0%
  pest or weed control at 125 g/ha: 50%
  pest or weed control at 250 g/ha: 55%
[5]; [14]
  pest or weed control at 31 g/ha: 0%
[5]; pre-emergence, Preemergence
  pest or weed control at 62 g/ha: 0%
  pest or weed control at 125 g/ha: 0%
  pest or weed control at 250 g/ha: 0%
[6]; [13]
  pest or weed control at 31 g/ha: 30%
[6]; [18]
  pest or weed control at 62 g/ha: 60%
  pest or weed control at 125 g/ha: 95%
  pest or weed control at 250 g/ha: 100%
[6]; [14]
  pest or weed control at 31 g/ha: 40%
[6]; [19]
  pest or weed control at 62 g/ha: 80%
  pest or weed control at 125 g/ha: 80%
[6]; pre-emergence, Preemergence, scale 0 to 100 (0 no effect, 100 complete control)
  pest or weed control at 250 g/ha: 95%
[7]; [17]
  pest or weed control at 31 g/ha: 0%
[7]; 62 g ai/ha, scale 0 to 100
  pest or weed control at 62 g/ha: 0%
[7]; 125 g ai/ha, scale 0 to 100
  pest or weed control at 125 g/ha: 0%
[7]; 250 g ai/ha, scale 0 to 100
  pest or weed control at 250 g/ha: 0%
[8]; [13]
  pest or weed control at 31 g/ha: 60%
[8]; post-emergence, Postemergence
  pest or weed control at 62 g/ha: 90%
  pest or weed control at 125 g/ha: 100%
  pest or weed control at 250 g/ha: 100%
[8]; [14]
  pest or weed control at 31 g/ha: 90%
[8]; pre-emergence, Preemergence
  pest or weed control at 62 g/ha: 95%
  pest or weed control at 125 g/ha: 100%
  pest or weed control at 250 g/ha: 100%
[9]; [13]
  pest or weed control at 31 g/ha: 80%
[9]; post-emergence, Postemergence
  pest or weed control at 62 g/ha: 90%
  pest or weed control at 125 g/ha: 100%
  pest or weed control at 250 g/ha: 100%
[9]; [14]
  pest or weed control at 31 g/ha: 98%
[9]; pre-emergence, Preemergence
  pest or weed control at 62 g/ha: 100%
  pest or weed control at 125 g/ha: 100%
  pest or weed control at 250 g/ha: 100%
[10]; post-emergence, Postemergence
  pest or weed control at 62 g/ha: 0%
  pest or weed control at 125 g/ha: 0%
  pest or weed control at 250 g/ha: 0%
[10]; pre-emergence, Preemergence, 31 g ai/ha, 0 to 100 scale, 0 no effect, 100 complete control
  pest or weed control at 31 g/ha: 0%
[10]; pre-emergence, Preemergence
  pest or weed control at 62 g/ha: 0%
  pest or weed control at 125 g/ha: 0%
  pest or weed control at 250 g/ha: 0%
[11]; post-emergence, Postemergence, 31 g ai/ha, scale 0 to 100, 0 no effect, 100 complete control
  pest or weed control at 31 g/ha: 0%
[11]; post-emergence, Postemergence
  pest or weed control at 62 g/ha: 0%
  pest or weed control at 125 g/ha: 0%
  pest or weed control at 250 g/ha: 40%
[11]; pre-emergence, Preemergence
  pest or weed control at 62 g/ha: 0%
  pest or weed control at 125 g/ha: 0%
  pest or weed control at 250 g/ha: 0%
Wild oat (Avena fatua); [13]
  pest or weed control at 31 g/ha: 90%
Wild oat (Avena fatua); post-emergence, Postemergence
  pest or weed control at 62 g/ha: 100%
  pest or weed control at 125 g/ha: 100%
  pest or weed control at 250 g/ha: 100%
Wild oat (Avena fatua); [14]
  pest or weed control at 31 g/ha: 60%
Wild oat (Avena fatua); pre-emergence, Preemergence
  pest or weed control at 62 g/ha: 85%
  pest or weed control at 125 g/ha: 90%
  pest or weed control at 250 g/ha: 98%
[12]; [20]
  pest or weed control at 62 g/ha: 0%
[12]; [21]
  pest or weed control at 125 g/ha: 20%
[12]; [22]
  pest or weed control at 250 g/ha: 60%
[12]; [23]
  pest or weed control at 31 g/ha: 0%
Rice (Oryza sativa); [20]
  plant injury at 62 g/ha: 0%
Rice (Oryza sativa); [21]
  plant injury at 125 g/ha: 0%
Rice (Oryza sativa); [22]
  plant injury at 250 g/ha: 50%
Rice (Oryza sativa); [23]
  plant injury at 31 g/ha: 0%
